Structures can show the parent of a compound that is named as a salt. Where two headings read alike, the source gives them in different places.
Target: GCN2 (Homo sapiens, UniProt Q9P2K8)
Assay: GCN2 enzymatic endpoint assay: phosphorylation of GFP-eIF2α measured by TR-FRET (Lanthascreen)
Type: biochemical
Outline: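 2 μM ATP, 80 nM GFP-eIF2α, RT, 90 min; EDTA stop. Tb-anti-phospho antibody TR-FRET read, 520/495 nm ratio.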

[1] = tested as described in Example 77, compound and/or hydrochloride, dihydrochloride or trifluoroacetic acid salt, read-out: IC 50 Activity
[2] = GCN2 biochemical IC50, 4 nM GCN2, 2 μM ATP, 80 nM GFP-eIF2α, 90 min RT, read-out: GCN2 activity

GCN2, sequence (Q9P2K8 whole entry): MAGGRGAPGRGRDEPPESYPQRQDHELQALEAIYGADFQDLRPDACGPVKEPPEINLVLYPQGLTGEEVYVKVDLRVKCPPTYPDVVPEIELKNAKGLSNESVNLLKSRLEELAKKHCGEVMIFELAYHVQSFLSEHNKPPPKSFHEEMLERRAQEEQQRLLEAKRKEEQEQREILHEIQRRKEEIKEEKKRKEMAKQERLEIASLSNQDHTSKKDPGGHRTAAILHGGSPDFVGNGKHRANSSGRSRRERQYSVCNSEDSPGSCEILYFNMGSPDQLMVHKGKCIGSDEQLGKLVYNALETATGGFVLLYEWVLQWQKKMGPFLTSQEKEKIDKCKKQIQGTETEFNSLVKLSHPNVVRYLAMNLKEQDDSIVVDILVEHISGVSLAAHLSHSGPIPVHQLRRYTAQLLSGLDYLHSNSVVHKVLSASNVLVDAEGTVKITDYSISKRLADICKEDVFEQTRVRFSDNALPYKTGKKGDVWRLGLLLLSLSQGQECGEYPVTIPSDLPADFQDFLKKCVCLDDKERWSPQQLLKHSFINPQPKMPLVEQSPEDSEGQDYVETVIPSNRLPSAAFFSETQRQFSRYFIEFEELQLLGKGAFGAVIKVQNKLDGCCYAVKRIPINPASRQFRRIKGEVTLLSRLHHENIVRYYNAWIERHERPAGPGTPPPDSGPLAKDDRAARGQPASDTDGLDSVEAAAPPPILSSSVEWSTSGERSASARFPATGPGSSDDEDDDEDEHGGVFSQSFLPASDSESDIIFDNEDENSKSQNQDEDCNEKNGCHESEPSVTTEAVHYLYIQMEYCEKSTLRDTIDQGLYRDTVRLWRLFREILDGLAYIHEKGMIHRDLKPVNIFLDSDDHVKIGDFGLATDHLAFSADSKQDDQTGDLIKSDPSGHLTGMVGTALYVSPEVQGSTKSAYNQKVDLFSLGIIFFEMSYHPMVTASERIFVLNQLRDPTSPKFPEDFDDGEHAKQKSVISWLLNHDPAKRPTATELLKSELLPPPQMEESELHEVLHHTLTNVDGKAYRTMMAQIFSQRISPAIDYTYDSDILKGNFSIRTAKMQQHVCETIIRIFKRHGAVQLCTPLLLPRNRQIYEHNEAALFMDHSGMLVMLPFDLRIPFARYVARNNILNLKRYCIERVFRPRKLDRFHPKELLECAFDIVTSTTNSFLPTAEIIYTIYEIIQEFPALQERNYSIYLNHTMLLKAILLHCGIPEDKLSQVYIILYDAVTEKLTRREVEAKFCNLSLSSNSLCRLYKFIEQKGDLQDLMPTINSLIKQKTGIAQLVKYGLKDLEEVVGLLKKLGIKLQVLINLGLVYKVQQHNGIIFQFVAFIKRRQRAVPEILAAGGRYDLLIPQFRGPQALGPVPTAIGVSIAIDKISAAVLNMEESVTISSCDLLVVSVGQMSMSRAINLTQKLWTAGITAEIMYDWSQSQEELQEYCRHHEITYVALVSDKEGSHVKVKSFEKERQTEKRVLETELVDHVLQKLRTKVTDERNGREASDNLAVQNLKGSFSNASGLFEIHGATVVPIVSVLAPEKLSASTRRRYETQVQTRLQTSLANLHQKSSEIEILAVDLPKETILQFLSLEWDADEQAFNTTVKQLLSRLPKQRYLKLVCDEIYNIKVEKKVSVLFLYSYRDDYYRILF

Row | IC50 [1] [nM] | IC50 [2] [nM] | Structure (SMILES)
1 | 25 to 200 | – | CNC(=O)[C@@H]1CC[C@@H](Nc2ncc3c(Br)nn(-c4cc(F)c(-c5cccnc5)c(C#N)c4)c3n2)C1 [(1R,3R)-3-[[3-bromo-1-[3-cyano-5-fluoro-4-(3-pyridyl)phenyl]pyrazolo[3,4-d]pyrimidin-6-yl]amino]-N-methyl-cyclopentane-carboxamide]
2 | 25 to 200 | – | CNC(=O)[C@]1(C)CC[C@@H](Nc2ncc3c(Br)nn(-c4ccc(-c5nnc(COC)s5)cc4)c3n2)C1 [(1R,3R)-3-[[3-bromo-1-[4-[5-(methoxy-methyl)-1,3,4-thiadiazol-2-yl]phenyl]pyrazolo[3,4-d]pyrimidin-6-yl]amino]-N,1-dimethyl-cyclopentanecarboxamide]
3 | < 25 | – | CNC(=O)[C@]1(C)CC[C@@H](Nc2ncc3c(Br)nn(-c4cc(F)c5nc(C)ccc5c4)c3n2)C1 [(1R,3R)-3-[[3-bromo-1-(8-fluoro-2-methyl-6-quinolyl)pyrazolo[3,4-d]pyrimidin-6-yl]amino]-N,1-dimethyl-cyclopentane-carboxamide]
4 | 500 to 1000 | – | O=S(=O)(NC1CCC1)[C@@H]1CC[C@@H](Nc2ncc3c(Br)nn(-c4ccc5ncccc5c4)c3n2)C1 [(1R,3R)-3-((3-bromo-1-(quinolin-6-yl)-1H-pyrazolo[3,4-d]pyrimidin-6-yl)amino)-N-cyclobutylcyclopentane-1-sulfonamide]
5 | 25 to 200 | – | CNC(=O)C1(CCC#N)CC[C@@H](Nc2ncc3c(Br)nn(-c4ccc(-c5nnc(C)s5)c(CCC#N)c4)c3n2)C1 (stereo partly drawn) [(3R)-3-[[3-bromo-1-[3-(2-cyanoethyl)-4-(5-methyl-1,3,4-thiadiazol-2-yl)phenyl]pyrazolo[3,4-d]pyrimidin-6-yl]amino]-1-(2-cyanoethyl)-N-methyl-cyclopentanecarboxamide]
6 | 25 to 200 | – | CNC(=O)[C@]1(C)CC[C@@H](Nc2ncc3c(Br)nn(-c4cc(Br)cc(CO)c4)c3n2)C1 [(1R,3R)-3-[[3-bromo-1-[3-bromo-5-(hydroxymethyl)phenyl]pyrazolo [3,4-d]pyrimidin-6-yl]amino]-N,1-dimethyl-cyclopentanecarboxamide]
7 | < 25 | – | C[C@@]1(C(=O)NCCO)CC[C@@H](Nc2ncc3c(Br)nn(-c4cc(F)c5ncccc5c4)c3n2)C1 [(1R,3R)-3-[[3-bromo-1-(8-fluoro-6-quinolyl)pyrazolo[3,4-d]pyrimidin-6-yl]amino]-N-(2-hydroxyethyl)-1-methyl-cyclopentane-carboxamide]
8 | 25 to 200 | – | O=C([C@@H]1CC[C@@H](Nc2ncc3c(Br)nn(-c4ccc5ncccc5c4)c3n2)C1)N1CC(N2CCS(=O)(=O)CC2)C1 [((1R,3R)-3-((3-bromo-1-(quinolin-6-yl)-1H-pyrazolo[3,4-d]pyrimidin-6-yl)amino)cyclo-pentyl)(3-(1,1-dioxidothiomorpholino)azetidin-1-yl)methanone]
9 | – | 25 to 200 | COCCO[C@H]1C[C@H](Nc2ncc3c(Br)nn(-c4ccc5ncccc5c4)c3n2)C1 [Example 4, 3-bromo-N-((1r,3r)-3-(2-methoxyethoxy)cyclobutyl)-1-(quinolin-6-yl)-1H-pyrazolo[3,4-d]pyrimidin-6-amine]
10 | – | < 25 | CNC(=O)[C@]1(C)CC[C@@H](Nc2ncc3c(Br)nn(-c4cc(CCO)c5ncccc5c4)c3n2)C1 [Example 29, (1R,3R)-3-((3-bromo-1-(8-(2-hydroxyethyl)quinolin-6-yl)-1H-pyrazolo[3,4-d]pyrimidin-6-yl)amino)-N,1-dimethylcyclopentane-1-carboxamide hydrochloride]
11 | 25 to 200 | – | CNC(=O)[C@]1(C)CC[C@@H](Nc2ncc3c(Br)nn(-c4ccc(-c5cnn(C)c5C#N)cc4)c3n2)C1 [(1R,3R)-3-[[3-bromo-1-[4-(5-cyano-1-methyl-pyrazol-4-yl)phenyl]pyrazolo[3,4-d]pyrimidin-6-yl]amino]-N,1-dimethyl-cyclopentane-carboxamide]

Row | Structure (SMILES) | IC50 [1] [nM] | IC50 [2] [nM]
12 | CNC(=O)[C@]1(C)CC[C@@H](Nc2ncc3c(Br)nn(-c4cc(Cl)cc(CCS(C)(=O)=O)c4)c3n2)C1 | 25 to 200 | –
13 | CNC(=O)[C@]1(C)CC[C@@H](Nc2ncc3c(Br)nn(-c4ccc5ncn(CCCN)c(=O)c5c4)c3n2)C1 | 25 to 200 | –
14 | CNC(=O)[C@]1(C#N)CC[C@@H](Nc2ncc3c(Br)nn(-c4ccc(-c5nnc(C)s5)cc4)c3n2)C1 | 25 to 200 | –
